Experimental findings from ChEMBL document CHEMBL3046391, “Acute toxicity and sublethal effects of methoxyfenozide and thiodicarb on survival, development and reproduction of Helicoverpa armigera (Lepidoptera: Noctuidae)” (2013) are described below.

Holding throughout (format): functional
The subject of test [1] is Helicoverpa armigera. Briefly: Insecticidal activity against Helicoverpa armigera adults emerged from compound-treated third-instar larval stage assessed as decrease in longevity rate at LC30 concentration. Details: scale not given: the % may be the effect or the level left.
Test [2] concerns Helicoverpa armigera. Briefly: Insecticidal activity against Helicoverpa armigera adults emerged from compound-treated third-instar larval stage assessed as decrease in fecundity rate at LC30 concentration. Details: scale not given: the % may be the effect or the level left.
Test [3] relates to Helicoverpa armigera. Briefly: Insecticidal activity against Helicoverpa armigera pupae assessed as increase in pupal development time at LC30 concentration treated during third-instar larval stage for 24 hr.
In test [4] the test system is Helicoverpa armigera. Briefly: Insecticidal activity against Helicoverpa armigera assessed as pupal weight at LC30 concentration treated during third-instar larval stage for 24 hr (reference value: 311 +/-9 mg).
In test [5] the test system is Helicoverpa armigera. Briefly: Insecticidal activity against third-instar larval stage of Helicoverpa armigera fed with artificial diet containing compound assessed as increase in larval development time at LC30 concentration incubated for 24 hr.
Test [6] relates to Helicoverpa armigera. Briefly: Insecticidal activity against Helicoverpa armigera fed with artificial diet containing compound assessed as mortality at LC30 concentration measured at 24 hr intervals beginning at 24 hr after initial drug exposure.
The subject of test [7] is Helicoverpa armigera. Briefly: Insecticidal activity against third-instar larval stage of Helicoverpa armigera fed with artificial diet containing compound assessed as mortality at LC30 concentration measured at 24 hr intervals beginning at 24 hr after initial drug exposure.
The subject of test [8] is Helicoverpa armigera. Briefly: Insecticidal activity against third-instar larval stage of Helicoverpa armigera fed with artificial diet containing compound assessed as mortality measured at 24 hr intervals beginning at 24 hr after initial drug exposure. The conditions noted are these: for LC50: Helicoverpa armigera, Instar larval stage, 24 h.

In brackets after ≈: the same amount, converted by molar mass.

Usually mortality stands for the percentage killed. As usually defined, the LC50 is the concentration lethal to half of the exposed cells or organisms. In the case of `COc1cccc(C(=O)NN(C(=O)c2cc(C)cc(C)c2)C(C)(C)C)c1C` [METHOXYFENOZIDE], the figures for the Activity in the test on Helicoverpa armigera [1], with Helicoverpa armigera [2] and in the test on Helicoverpa armigera [4] were 27.5%, 35% and 253 mg, respectively. Also, the Time with Helicoverpa armigera [3] amounted to 2.3 days; in the test with Helicoverpa armigera [5], 2.1 days. Further, the mortality with Helicoverpa armigera [6] and in the test on Helicoverpa armigera [7] was 32% throughout. Moreover, the LC30 in the test with Helicoverpa armigera [8] is 148 ppm. Besides, the LC90 in the test on Helicoverpa armigera [8] came to 560 ppm. In addition, in the test with Helicoverpa armigera [8], the LC50 amounted to 218 µg/mL (≈ 592 µM).
In the case of `CS/C(C)=N\OC(=O)N(C)SN(C)C(=O)O/N=C(\C)SC` [THIODICARB], the Activity with Helicoverpa armigera [1] is on record as 23%; in the test on Helicoverpa armigera [2], 30%; in the test on Helicoverpa armigera [4], 294 mg. Moreover, the Time worked out at 0.5 days in the test with Helicoverpa armigera [3] and 5.3 days in the test on Helicoverpa armigera [5]. The mortality in the test with Helicoverpa armigera [6] and in the test with Helicoverpa armigera [7] was 20% each time. For the same compound, in the test with Helicoverpa armigera [8], the LC30 is reported as 550 ppm. Moreover, in the test on Helicoverpa armigera [8], the LC90 came to 1987 ppm. For the same compound, the LC50 in the test on Helicoverpa armigera [8] amounted to 798 µg/mL (≈ 2250 µM).
